These results are taken from patent US9725416B2, “Ethynyl derivatives” (Hoffmann-La Roche Inc., priority 2014, dated 2017).

The structures appear in SMILES notation.

The test system of one assay is mice treated with MPTP. To be noted: cited from earlier work.
Assay [1] has as its system mice. The following applies: reported by Addex 2010; cited from earlier work.
Assay [2] relates to mice. The following applies: reported by Addex 2010; cited from earlier work. This is another data set of the same source.
In the next assay the test system is rats. The following applies: cited from earlier work.
The next assay concerns the target T1, human mGlu4 receptor (Homo sapiens, UniProt Q14833).
T1 construct: expressed in transfected cells; host or cells: HEK-293 (monoclonal, stably transfected)
Nature of the assay: Ca2+ mobilization in vitro assay on recombinant human mGlu4 expressed in HEK293 cells (mGlu4 PAM). To be noted: for Emax: HEK293, maximal response in % of the maximal stimulatory effect obtained with saturating concentrations of L-AP4, read-out: Eff. (%); for EC50: HEK-293 cells, Ca2+ mobilization, L-AP4 added at EC20. It counts as cell-based. In a few lines: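 HEK293 line stably expressing human mGlu4 (low expression, low constitutive activity), Fluo-4AM loaded; compounds (11 half-log dilutions) preincubated 10-30 min at 37 °C, then L-AP4 added at its EC20, determined daily. EC50 from peak fluorescence minus basal, normalized to saturating L-AP4 maximum, four-parameter fit.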
For orientation: Calcium flux is commonly read through the fluorescence of an indicator in the cells.

Assay [3] relates to 6-OHDA rodent model of PD. To be noted: cited from earlier work.

T1 sequence (Q14833 33-912): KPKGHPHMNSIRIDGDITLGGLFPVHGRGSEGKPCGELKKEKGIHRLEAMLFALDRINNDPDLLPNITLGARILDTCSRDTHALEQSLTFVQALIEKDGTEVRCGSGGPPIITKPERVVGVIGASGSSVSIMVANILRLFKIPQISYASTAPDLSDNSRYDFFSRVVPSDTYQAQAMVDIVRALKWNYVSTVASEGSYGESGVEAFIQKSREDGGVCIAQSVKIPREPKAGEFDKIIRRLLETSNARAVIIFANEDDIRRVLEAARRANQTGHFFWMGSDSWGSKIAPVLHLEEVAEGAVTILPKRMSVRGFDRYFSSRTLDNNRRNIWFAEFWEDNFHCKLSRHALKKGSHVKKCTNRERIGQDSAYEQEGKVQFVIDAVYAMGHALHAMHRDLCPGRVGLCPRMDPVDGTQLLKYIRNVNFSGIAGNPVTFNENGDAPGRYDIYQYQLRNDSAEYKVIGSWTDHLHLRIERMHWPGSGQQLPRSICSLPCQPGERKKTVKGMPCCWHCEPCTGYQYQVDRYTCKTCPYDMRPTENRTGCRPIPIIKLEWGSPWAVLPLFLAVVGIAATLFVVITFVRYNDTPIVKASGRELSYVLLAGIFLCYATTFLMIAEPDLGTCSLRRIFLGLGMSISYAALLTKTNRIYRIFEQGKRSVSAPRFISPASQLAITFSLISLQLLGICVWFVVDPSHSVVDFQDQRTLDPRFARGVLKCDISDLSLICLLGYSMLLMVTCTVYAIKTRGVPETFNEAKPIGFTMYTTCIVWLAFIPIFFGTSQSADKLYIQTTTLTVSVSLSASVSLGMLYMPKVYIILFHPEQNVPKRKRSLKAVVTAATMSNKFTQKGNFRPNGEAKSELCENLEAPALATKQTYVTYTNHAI

As for `O=C(Nc1ccccc1)C12CC1/C(=N\O)c1ccccc1O2` (single isomer, unassigned; (-)) [(−)-PHCCC], the nigrostriatal degeneration result in the assay on mice treated with MPTP was “reduced nigrostriatal degeneration”.
Turning to `Cc1ccnc(Nc2nc(-c3cn[nH]c3)c(C)s2)n1` [ADX88178], the “activity in marble burying test” value in the assay on mice [1] is reported as “active”. The “activity in EPM” value is on record as “active” in the assay with mice [2] and “active” in the assay with rats (rats, reported by Addex 2010). Also, the “profile in rat EPM test” value with rats (rat, after oral dosing) was “anxiolytic-like profile”.
`CCn1cc([C@]2(C)CC(=O)N(c3c(F)cc(C#Cc4ccccc4)cc3F)C(=O)N2C)ccc1=O` [Example 67, (6S)-3-[2,6-Difluoro-4-(2-phenylethynyl)phenyl]-6-(1-ethyl-6-oxo-3-pyridyl)-1,6-dimethyl-hexahydropyrimidine-2,4-dione]: at human mGlu4 receptor, the Emax was found to be 106% and the EC50 came to 56 nM.
On the same counts, the results for `CC(C)n1cc([C@]2(C)CC(=O)N(c3c(F)cc(C#Cc4ccccc4)cc3F)C(=O)N2C)ccc1=O` [Example 68, (6S)-3-[2,6-Difluoro-4-(2-phenylethynyl)phenyl]-6-(1-isopropyl-6-oxo-3-pyridyl)-1,6-dimethyl-hexahydropyrimidine-2,4-dione] are 113% and 44 nM.
On the same counts, the results for `CC(C)Oc1ccc([C@]2(C)CC(=O)N(c3c(F)cc(C#Cc4ccccc4)cc3F)C(=O)N2C)cn1` [Example 69, (6S)-3-[2,6-Difluoro-4-(2-phenylethynyl)phenyl]-6-(6-isopropoxy-3-pyridyl)-1,6-dimethyl-hexahydropyrimidine-2,4-dione] are 95% and 97 nM.
For the compound `CC(C)N1C(=O)N(c2c(F)cc(C#Cc3ccccc3)cc2F)C(=O)C[C@@]1(C)c1cccnc1` [Example 70, (6S)-3-[2,6-Difluoro-4-(2-phenylethynyl)phenyl]-1-isopropyl-6-methyl-6-(3-pyridyl)hexahydropyrimidine-2,4-dione], on human mGlu4 receptor, the Emax turned out to be 106% and the EC50 turned out to be 73 nM.
For the compound `CN1C(=O)N(c2c(F)cc(C#Cc3ccccc3)cc2Cl)C(=O)C[C@@]1(C)c1cccnc1` [Example 71, (6S)-3-[2-Chloro-6-fluoro-4-(2-phenylethynyl)phenyl]-1,6-dimethyl-6-(3-pyridyl)hexahydropyrimidine-2,4-dione], on human mGlu4 receptor, the Emax came out at 105% and the EC50 stood at 148 nM.
The like results for `COc1cc([C@]2(C)CC(=O)N(c3c(F)cc(C#Cc4ccccc4)cc3F)C(=O)N2C)ccn1` [Example 73, (6S)-3-[2,6-Difluoro-4-(2-phenylethynyl)phenyl]-6-(2-methoxy-4-pyridyl)-1,6-dimethyl-hexahydropyrimidine-2,4-dione] were, in that order, 120% and 47 nM.
The like results for `CN1C(=O)N(c2c(F)cc(C#Cc3ccccc3)cc2F)C(=O)C[C@@]1(C)c1cc[nH]c(=O)c1` [Example 74, (6S)-3-[2,6-Difluoro-4-(2-phenylethynyl)phenyl]-1,6-dimethyl-6-(2-oxo-1H-pyridin-4-yl)hexahydropyrimidine-2,4-dione] were, in that order, 116% and 42 nM.
On the same counts, the results for `CN1C(=O)N(c2c(F)cc(C#Cc3ccccc3)cc2F)C(=O)C[C@@]1(C)c1ccn(C)c(=O)c1` [Example 75, (6S)-3-[2,6-Difluoro-4-(2-phenylethynyl)phenyl]-1,6-dimethyl-6-(1-methyl-2-oxo-4-pyridyl)hexahydropyrimidine-2,4-dione] are 108% and 55 nM.
In the case of `Cc1nccc([C@]2(C)CC(=O)N(c3c(F)cc(C#Cc4ccccc4)cc3F)C(=O)N2C)n1` [Example 76, (6S)-3-[2,6-Difluoro-4-(2-phenylethynyl)phenyl]-1,6-dimethyl-6-(2-methylpyrimidin-4-yl)hexahydropyrimidine-2,4-dione], on human mGlu4 receptor, the Emax came to 111% and the EC50 was determined as 103 nM.
The like results for `CCN1C(=O)N(c2c(F)cc(C#Cc3ccccc3)cc2F)C(=O)C[C@@]1(C)c1ccnc(C)c1` [Example 77, (6S)-3-[2,6-Difluoro-4-(2-phenylethynyl)phenyl]-1-ethyl-6-methyl-6-(2-methyl-4-pyridyl)hexahydropyrimidine-2,4-dione] were, in that order, 111% and 68 nM.
The like results for `CN1C(=O)N(c2c(F)cc(C#Cc3ccccc3)cc2F)C(=O)C[C@@]1(C)c1ccncc1` [Example 78, (6S)-3-[2,6-Difluoro-4-(2-phenylethynyl)phenyl]-1,6-dimethyl-6-(4-pyridyl)hexahydropyrimidine-2,4-dione] were, in that order, 111% and 68 nM.
The like results for `COc1ncc([C@]2(C)CC(=O)N(c3c(F)cc(C#Cc4ccccc4)cc3F)C(=O)N2C)cn1` [Example 79, (6S)-3-[2,6-Difluoro-4-(2-phenylethynyl)phenyl]-6-(2-methoxypyrimidin-5-yl)-1,6-dimethyl-hexahydropyrimidine-2,4-dione] were, in that order, 105% and 46 nM.
In the case of `CN1C(=O)N(c2c(F)cc(C#Cc3ccccc3)cc2F)C(=O)C[C@@]1(C)c1cnc(=O)[nH]c1` [Example 80, (6S)-3-[2,6-Difluoro-4-(2-phenylethynyl)phenyl]-1,6-dimethyl-6-(2-oxo-1H-pyrimidin-5-yl)hexahydropyrimidine-2,4-dione], on human mGlu4 receptor, the Emax turned out to be 105% and the EC50 came out at 185 nM.
For the compound `COc1ccc([C@]2(C)CC(=O)N(c3c(F)cc(C#Cc4ccccc4)cc3F)C(=O)N2C)nn1` [Example 81, (6S)-3-[2,6-Difluoro-4-(2-phenylethynyl)phenyl]-6-(6-methoxypyridazin-3-yl)-1,6-dimethyl-hexahydropyrimidine-2,4-dione], at human mGlu4 receptor, the Emax came out at 100% and the half-maximal effective concentration (EC50) was found to be 28 nM.
On the same counts, the results for `CN1C(=O)N(c2c(F)cc(C#Cc3ccccc3)cc2F)C(=O)C[C@@]1(C)c1ccc(=O)[nH]n1` [Example 82, (6S)-3-[2,6-Difluoro-4-(2-phenylethynyl)phenyl]-1,6-dimethyl-6-(6-oxo-1H-pyridazin-3-yl)hexahydropyrimidine-2,4-dione] are 115% and 18 nM.
On the same counts, the results for `CN1C(=O)N(c2c(F)cc(C#Cc3ccccc3)cc2F)C(=O)C[C@@]1(C)c1ccc(=O)n(C)n1` [Example 83, (6S)-3-[2,6-Difluoro-4-(2-phenylethynyl)phenyl]-1,6-dimethyl-6-(1-methyl-6-oxo-pyridazin-3-yl)hexahydropyrimidine-2,4-dione] are 116% and 42 nM.
On the same counts, the results for `CN1C(=O)N(c2c(F)cc(C#Cc3ccccc3)cc2F)C(=O)C[C@@]1(C)c1cnc2c(ccn2C)c1` [Example 84, (6S)-3-[2,6-Difluoro-4-(2-phenylethynyl)phenyl]-1,6-dimethyl-6-(1-methylpyrrolo[2,3-b]pyridin-5-yl)hexahydropyrimidine-2,4-dione] are 114% and 40 nM.
For `CN1C(=O)N(c2c(F)cc(C#Cc3ccccc3)cc2F)C(=O)C[C@@]1(C)c1ccc2nccn2n1` [Example 85, (6S)-3-[2,6-Difluoro-4-(2-phenylethynyl)phenyl]-6-imidazo[1,2-b]pyridazin-6-yl-1,6-dimethyl-hexahydropyrimidine-2,4-dione], on human mGlu4 receptor, the Emax stood at 88% and the EC50 was 57 nM.
On to `N[C@@H](CCP(=O)(O)O)C(=O)O` [L-AP4, (2S)-2-amino-4-phosphonobutanoic acid], for which, in assay [3], the neuroprotection result is given as “neuroprotective effects”.

For orientation: EC50 means the concentration that produces a half-maximal response.
